Experimental data published in the CheMixHub ionic liquid set.
“And” between values parts separate entries of the source, which are not always exact repeats. Equal entries are not always repeated.

Test: xn = mol fraction of the nth substance listed

C1COCCO1 + CC[n+]1ccn(C)c1.F[B-](F)(F)F
100 kPa, x1 = 1
Conditions	viscosity [mPa·s]
323.15 K	0.814
343.15 K	0.64

CCCCn1cc[n+](CCOCCOCC[n+]2ccn(CCCC)c2)c1.N#C[N-]C#N.N#C[N-]C#N + CC[n+]1ccn(C)c1.N#C[N-]C#N + O=S(=O)([N-]S(=O)(=O)C(F)(F)F)C(F)(F)F.[Li+]
100 kPa, x1 = 0.2388, x2 = 0.6693
Conditions	electrical conductivity [S/m]
298 K	0.505
303 K	0.581
313 K	0.847
323 K	1.23
333 K	1.53
343 K	1.85

CC1COC(=O)O1 (stereo not drawn) + CC[n+]1ccn(C)c1.N#C[S-]
101.3 kPa, x2 = 0
Conditions	viscosity [mPa·s]
293.15 K	2.945
308.15 K	1.919
333.15 K	1.293

CC[n+]1ccn(C)c1.N#C[N-]C#N + CC[n+]1ccn(C)c1.N#C[S-]
100 kPa
Conditions	electrical conductivity [S/m]	viscosity [mPa·s]
298.15 K, x2 = 0.2585	2.68	16.36
308.15 K, x2 = 0.2585	3.45	12.4
318.15 K, x2 = 0	4.52	8.93
318.15 K, x2 = 0.7603	4.01	11.79
323.15 K, x2 = 0.5112	4.62	9.51
328.15 K, x2 = 0.2585	–	7.87
333.15 K, x2 = 0	–	6.37
338.15 K, x2 = 0.2585	–	6.49
348.15 K, x2 = 0.5112	–	5.87
353.15 K, x2 = 0.7603	–	5.7

CC1COC(=O)O1 (stereo not drawn) + CC[n+]1ccn(C)c1.O=S(=O)([N-]S(=O)(=O)C(F)(F)F)C(F)(F)F
101.3 kPa, x2 = 0
Conditions	viscosity [mPa·s]
303.15 K	2.246
318.15 K	1.73
338.15 K	1.294

CCC[N+]1(C)CCCC1.O=S(=O)([N-]S(=O)(=O)C(F)(F)F)C(F)(F)F + CC[n+]1ccn(C)c1.O=S(=O)([N-]S(=O)(=O)C(F)(F)F)C(F)(F)F
101 kPa
Conditions	electrical conductivity, 293.15 K [S/m]	electrical conductivity, 333.15 K [S/m]	electrical conductivity, 353.15 K [S/m]	viscosity, 293.15 K [mPa·s]	viscosity, 333.15 K [mPa·s]	viscosity, 353.15 K [mPa·s]
x2 = 0	–	1.18	1.76	–	18.8	11.6
x2 = 0.5	0.528	–	–	53.4	–	–

CC1COC(=O)O1 (stereo not drawn) + CC[n+]1ccn(C)c1.O=S(=O)([O-])C(F)(F)F
101 kPa, x2 = 0
Conditions	viscosity [mPa·s]
293.15 K	2.94
343.15 K	1.251

[Br][Al]([Br])[Br] + CC[n+]1ccn(C)c1.[Br-]
Conditions	electrical conductivity [S/m]
298.15 K, 101.3 kPa, x1 = 0.35	0.625

NC(CO)CO + CC[n+]1ccn(C)c1.[Cl-]
101 kPa, x2 = 0.667
Conditions	viscosity [mPa·s]
298.15 K	297
303.15 K	214
313.15 K	115.9
323.15 K	64.5
333.15 K	41.4

CC1COC(=O)O1 (stereo not drawn) + CC[n+]1ccn(C)c1C.O=S(=O)([N-]S(=O)(=O)C(F)(F)F)C(F)(F)F
101.3 kPa, x2 = 0
Conditions	viscosity [mPa·s]
308.15 K	2.049
348.15 K	1.14

CCCC[n+]1ccn(C)c1.F[B-](F)(F)F + CN1CCCC1=O
viscosity, 101 kPa
Conditions	298.15 K	303.15 K	308.15 K	313.15 K	323.15 K
x1 = 0.0115	2.02 mPa·s	1.88 mPa·s	1.52 mPa·s	1.44 mPa·s	–
x2 = 0	101 mPa·s	81 mPa·s and 84.2 mPa·s	61.5 mPa·s	51.5 mPa·s	35.5 mPa·s
x2 = 0.043	86 mPa·s	73.7 mPa·s	58.1 mPa·s	–	–
x2 = 0.0879	76.3 mPa·s	63.5 mPa·s	51.2 mPa·s	43.1 mPa·s	–
x2 = 0.0999	–	63.2 mPa·s	–	–	–
x2 = 0.2001	–	47.1 mPa·s	–	–	–
x2 = 0.2126	56.9 mPa·s	46.1 mPa·s	36.1 mPa·s	32.5 mPa·s	–
x2 = 0.3028	–	34.7 mPa·s	–	–	–
x2 = 0.388	35.2 mPa·s	25.2 mPa·s	16.5 mPa·s	14.6 mPa·s	–
x2 = 0.4	–	24.58 mPa·s	–	–	–
x2 = 0.5343	21.7 mPa·s	14.8 mPa·s	9.2 mPa·s	6.53 mPa·s	–
x2 = 0.6577	13.1 mPa·s	9.5 mPa·s	6.81 mPa·s	5.38 mPa·s	–
x2 = 0.7001	–	–	–	–	4.6 mPa·s
x2 = 0.7221	9.1 mPa·s	7.8 mPa·s	5.61 mPa·s	5.01 mPa·s	–
x2 = 0.7612	7.67 mPa·s	6.86 mPa·s	6.01 mPa·s	5.33 mPa·s	–
x2 = 0.8524	4.94 mPa·s	4.45 mPa·s	3.99 mPa·s	3.58 mPa·s	–
x2 = 0.9005	3.6 mPa·s	3.27 mPa·s	2.95 mPa·s	2.69 mPa·s	–
x2 = 0.9321	2.96 mPa·s	2.88 mPa·s	2.81 mPa·s	2.09 mPa·s	–
x2 = 0.9743	2.3 mPa·s	2.11 mPa·s	1.93 mPa·s	1.79 mPa·s	–

CCCCCCCCn1cc[n+](C)c1.O=S(=O)([N-]S(=O)(=O)C(F)(F)F)C(F)(F)F + CN(C)C=O
viscosity [mPa·s], 101 kPa
Conditions	293.15 K	303.15 K	313.15 K	323.15 K	333.15 K	343.15 K	353.15 K	363.15 K
x1 = 0.001926	0.959	0.858	0.771	0.702	0.641	0.59	0.543	0.502
x1 = 0.003917	0.982	0.876	0.787	0.715	0.653	0.598	0.552	0.51
x1 = 0.007695	1.019	0.907	0.818	0.738	0.672	0.617	0.568	0.524
x1 = 0.01197	1.059	0.942	0.85	0.762	0.694	0.635	0.584	0.539
x1 = 0.01518	1.096	0.971	0.877	0.784	0.713	0.653	0.598	0.552
x1 = 0.0193	1.136	1.006	0.909	0.81	0.734	0.669	0.614	0.579

CCCC[n+]1ccn(C)c1.F[B-](F)(F)F + CN(C)C=O
Conditions	viscosity [mPa·s]
293.15 K, 101 kPa, x1 = 0.08	3.1
298.15 K, 101 kPa, x1 = 0.74	42.5
298.15 K, 101 kPa, x1 = 0.83	62.4
298.15 K, 101 kPa, x1 = 0.94	88
298.15 K, 101.33 kPa, x2 = 0.1024	78
303.15 K, 100 kPa, x1 = 0.1008	1.497
303.15 K, 101 kPa, x1 = 0.94	74
308.15 K, 101 kPa, x1 = 0.43	5.71
313.15 K, 100 kPa, x1 = 0.8015	25.47
313.15 K, 100 kPa, x1 = 1	53.84
313.15 K, 101 kPa, x1 = 0.16	2.45
313.15 K, 101 kPa, x1 = 0.74	18.5
318.15 K, 101 kPa, x1 = 0.08	1.42
318.15 K, 101 kPa, x1 = 0.55	1.67
318.15 K, 101 kPa, x1 = 0.74	12
323.15 K, 100 kPa, x1 = 0.3022	2.993
323.15 K, 100 kPa, x1 = 0.7019	14.07
323.15 K, 101 kPa, x1 = 0.08	1.19
323.15 K, 101 kPa, x1 = 0.74	6.8
323.15 K, 101 kPa, x1 = 0.94	26.6
333.15 K, 100 kPa, x1 = 0.7019	10.75

NC(N)=[NH2+].O=S(=O)([O-])C(F)(F)F + CN(CCO)CCO + O
Conditions	viscosity [mPa·s]
323.2 K, 101 kPa, x2 = 0.1179, x3 = 0.8792	3.5

CCCC[n+]1ccn(C)c1.F[B-](F)(F)F + CNC(C)=O
Conditions	viscosity [mPa·s]
293.15 K, 101 kPa, x1 = 1	127.6

CCCC[n+]1ccn(C)c1.F[B-](F)(F)F + CO
101 kPa
Conditions	electrical conductivity [S/m]	viscosity [mPa·s]
298.1 K, x1 = 0.007405	0.598	–
298.1 K, x1 = 0.03422	1.35	–
303.15 K, x2 = 0.6004	–	5.98
313.15 K, x2 = 0	–	53
313.15 K, x2 = 0.1003	–	36.1
313.15 K, x2 = 0.2047	–	24.26
313.15 K, x2 = 0.7997	–	1.778
313.15 K, x2 = 0.9001	–	0.993
323.15 K, x2 = 0.1003	–	25.42
323.15 K, x2 = 0.6004	–	4.07
333.15 K, x2 = 0.3996	–	7.23
